Laboratory results from patent publication US7501442B2, “Biphenyl compounds useful as muscarinic receptor antagonists” (Theravance, Inc., priority 2004, dated 2009).

How the values were obtained:
[1] = tested on: ACh-induced bronchoconstriction; assay: Duration of bronchoprotection in guinea pig model of acetylcholine-induced bronchoconstriction; assay type: in vivo; details: inhalation, 1.5 hours post-dose
Description: Determination of Duration of Bronchoprotection in Guinea Pig Model of Acetylcholine-Induced Bronchoconstriction
Groups of six male guinea pigs (Duncan-Hartley (HsdPoc:DH) Harlan, Madison, Wis.) weighing between 250 and 350 g were individually identified by cage cards. Throughout the study animals were allowed access to food and water ad libitum.
Test compounds were administered via inhalation over 10 minutes in a whole-body exposure dosing chamber (R&S Molds, San Carlos, Calif.). The dosing chambers were arranged so that an aerosol was simultaneously delivered to 6 individual chambers from a central manifold. Guinea pigs were exposed to an aerosol of a test compound or vehicle (WFI). […] This was measured gravimetrically by comparing pre- and post-nebulization weights of the filled nebulizer.
The bronchoprotective effects of test compounds administered via inhalation were evaluated using whole body plethysmography at 1.5, 24, 48 and 72 hours post-dose.
Forty-five minutes prior to the start of the pulmonary evaluation, each guinea pig was anesthetized with an intramuscular injection of ketamine (43.75 mg/kg), xylazine (3.50 mg/kg) and acepromazine (1.05 mg/kg). […] The depth of anesthesia was monitored and adjusted if the animal responded to pinching of its paw or if the respiration rate was greater than 100 breaths/minute. […]

hM2 receptor = molecular target: T1, hM2 receptor (Homo sapiens, UniProt P08172); assay: Blockade of agonist-mediated inhibition of cAMP accumulation; assay type: cell-based; details: CHO-K1 cells expressing the hM2 receptor; read-out: Ki value for blockade of oxotremorine-inhibition of forskolin-mediated cAMP accumulation
T1 construct: expressed in transfected cells; host or cells: CHO-K1 cells
T1 sequence (P08172 1-466): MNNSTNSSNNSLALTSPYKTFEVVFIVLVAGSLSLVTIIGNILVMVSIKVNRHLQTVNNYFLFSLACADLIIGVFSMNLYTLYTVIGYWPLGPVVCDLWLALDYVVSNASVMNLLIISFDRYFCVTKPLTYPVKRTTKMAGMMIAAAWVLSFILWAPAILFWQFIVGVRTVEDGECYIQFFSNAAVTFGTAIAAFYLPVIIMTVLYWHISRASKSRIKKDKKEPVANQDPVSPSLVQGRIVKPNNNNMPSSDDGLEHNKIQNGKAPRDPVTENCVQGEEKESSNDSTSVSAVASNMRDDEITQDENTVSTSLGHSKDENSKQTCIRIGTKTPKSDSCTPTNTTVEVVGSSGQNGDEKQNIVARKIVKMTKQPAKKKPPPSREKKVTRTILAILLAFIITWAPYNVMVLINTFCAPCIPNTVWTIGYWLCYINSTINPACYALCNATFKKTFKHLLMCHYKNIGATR
Description: A. Blockade of Agonist-Mediated Inhibition of cAMP Accumulation
In this assay, the functional potency of a test compound was determined by measuring the ability of the test compound to block oxotremorine-inhibition of forskolin-mediated cAMP accumulation in CHO-K1 cells expressing the hM2 receptor.
cAMP assays were performed in a radioimmunoassay format using the Flashplate Adenylyl Cyclase Activation Assay System with ^125I-cAMP (NEN SMP004B, PerkinElmer Life Sciences Inc., Boston, Mass.), according to the manufacturer's instructions.
Cells were rinsed once with dPBS and lifted with Trypsin-EDTA solution (0.05% trypsin/0.53 mM EDTA) as described in the Cell Culture and Membrane Preparation section above. […] The cell pellet was then re-suspended in 10 mL dPBS, and the cells were counted with a Coulter Z1 Dual Particle Counter (Beckman Coulter, Fullerton, Calif.). […]
Reactions were incubated for 10 minutes at 37° C. and stopped by addition of 100 μL ice-cold detection buffer. Plates were sealed, incubated overnight at room temperature and counted the next morning on a PerkinElmer TopCount liquid scintillation counter (PerkinElmer Inc., Wellesley, Mass.). The amount of cAMP produced (pmol/well) was calculated based on the counts observed for the samples and cAMP standards, as described in the manufacturer's user manual. […]

## CN(CCN1CCC(OC(=O)Nc2ccccc2-c2ccccc2)CC1)C(=O)CCCCCNCCc1ccc(O)cc1 [Example 1, Biphenyl-2-ylcarbamic Acid 1-[2-({6-[2-(4-Hydroxyphenyl)ethylamino]hexanoyl}methylamino)ethyl]piperidin-4-yl Ester]
[1]
  PD2(50) for ACh-induced bronchoconstriction: less than 200 μg/mL
hM2 receptor
  Ki: < 0.01 µM
